From ChEMBL document CHEMBL5096222, “Discovery of a Trifluoromethoxy Cyclopentanone Benzothiazole Receptor-Interacting Protein Kinase 1 Inhibitor as the Treatment for Alzheimer's Disease” (J Med Chem, 2022)
Activity calls are given as the source filed them. The rule behind the calls is not given here.

Experiments:
Mus musculus [1] = test: Antialzheimer activity against STZ induced C57BL/6 mouse model of cognitive dysfunction assessed as reduction in latency at 1 mg/kg, IG administered once daily for 7 days; assay type: functional, organism-based; conditions: time 7.0 day
Mus musculus [2] = test: Antialzheimer activity against STZ induced C57BL/6 mouse model of cognitive dysfunction assessed as increase in percentage of quadrant time at 1 mg/kg, IG administered once daily for 7 days; assay type: functional, organism-based; conditions: time 7.0 day
Mus musculus [3] = test: Antialzheimer activity against STZ induced C57BL/6 mouse model of cognitive dysfunction assessed as increase in quadrant time at 1 mg/kg, IG administered once daily for 7 days; assay type: functional, organism-based; conditions: time 7.0 day
Mus musculus [4] = species: Mus musculus; test: Antialzheimer activity against STZ induced C57BL/6 mouse model of cognitive dysfunction assessed as restoration of hippocampal cell number by Nissl staining based analysis; assay type: functional, organism-based
Mus musculus [5] = species: Mus musculus; test: Antialzheimer activity against STZ induced C57BL/6 mouse model of cognitive dysfunction assessed as restoration of hippocampal morphology by Nissl staining based analysis; assay type: functional, organism-based
Mus musculus [6] = species: Mus musculus; test: Antialzheimer activity against STZ induced C57BL/6 mouse model of cognitive dysfunction assessed as decrease in p-Tau level in hippocampus by Western blot analysis; assay type: functional, organism-based
Mus musculus [7] = species: Mus musculus; test: Antialzheimer activity against STZ induced C57BL/6 mouse model of cognitive dysfunction assessed as decrease in p-Tau level in frontal cortex by Western blot analysis; assay type: functional, organism-based
[8] = Toxicity in C57BL/6 mouse assessed as effect on heart by H and E staining based analysis; assay type: tissue-based; conditions: in vivo
[9] = Toxicity in C57BL/6 mouse assessed as effect on liver by H and E staining based analysis; assay type: tissue-based; conditions: in vivo
[10] = Toxicity in C57BL/6 mouse assessed as effect on lungs by H and E staining based analysis; conditions: in vivo
[11] = Toxicity in C57BL/6 mouse assessed as effect on spleen by H and E staining based analysis; assay type: tissue-based; conditions: in vivo
[12] = Toxicity in C57BL/6 mouse assessed as effect on kidney by H and E staining based analysis; assay type: tissue-based; conditions: in vivo
[13] = Cytotoxicity against mouse primary neurons assessed as reduction in cell viability at 0.256 to […] by celltiter-glo luminescent cell viability assay; assay type: toxicity, cell-based; conditions: neuron, dose 0.256-[…]
Mus musculus [14] = species: Mus musculus; test: Antialzheimer activity against STZ induced C57BL/6 mouse model of cognitive dysfunction assessed as downregulation of IL-1 beta in frontal cortex; assay type: functional, organism-based
Mus musculus [15] = species: Mus musculus; test: Antialzheimer activity against STZ induced C57BL/6 mouse model of cognitive dysfunction assessed as downregulation of IL-1 beta in hippocampus; assay type: functional, organism-based
Mus musculus [16] = species: Mus musculus; test: Antialzheimer activity against STZ induced C57BL/6 mouse model of cognitive dysfunction assessed as decrease of TNF-alpha expression in frontal cortex; assay type: functional, organism-based
Mus musculus [17] = species: Mus musculus; test: Antialzheimer activity against STZ induced C57BL/6 mouse model of cognitive dysfunction assessed as decrease of TNF-alpha expression in hippocampus; assay type: functional, organism-based
Mus musculus [18] = species: Mus musculus; test: Antialzheimer activity against STZ induced C57BL/6 mouse assessed as decrease in p-RIPK1/RIPK1 ratio in frontal cortex; assay type: functional, organism-based
Mus musculus [19] = species: Mus musculus; test: Antialzheimer activity against STZ induced C57BL/6 mouse assessed as decrease in p-RIPK1/RIPK1 ratio in hippocampus; assay type: functional, organism-based
Mus musculus [20] = species: Mus musculus; test: Antialzheimer activity against STZ induced C57BL/6 mouse assessed as decrease in p-RIPK3/RIPK3 ratio in frontal cortex; assay type: functional, organism-based
Mus musculus [21] = species: Mus musculus; test: Antialzheimer activity against STZ induced C57BL/6 mouse assessed as decrease in p-RIPK3/RIPK3 ratio in hippocampus; assay type: functional, organism-based

Structure (SMILES): O=C1CC(C(=O)Nc2nc3cc(Oc4ccc(F)c(NC(=O)Cc5cccc(OC(F)(F)F)c5)c4)c(F)cc3s2)C1
- Activity (Mus musculus [1]): Active
- Activity (Mus musculus [2]): Active
- Activity (Mus musculus [3]): Active
- Activity (Mus musculus [4]): Active
- Activity (Mus musculus [5]): Active
- Activity (Mus musculus [6]): Active
- Activity (Mus musculus [7]): Active
- Activity [8]: Non-Toxic
- Activity [9]: Non-Toxic
- Activity [10]: Non-Toxic
- Activity [11]: Non-Toxic
- Activity [12]: Non-Toxic
- Activity [13]: Non-Toxic
- Activity (Mus musculus [14]): Active
- Activity (Mus musculus [15]): Active
- Activity (Mus musculus [16]): Active
- Activity (Mus musculus [17]): Active
- Activity (Mus musculus [18]): Active
- Activity (Mus musculus [19]): Active
- Activity (Mus musculus [20]): Active
- Activity (Mus musculus [21]): Active
